From ChEMBL document CHEMBL1201862, “PubChem BioAssay data set” (2004)
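A five-concentration, 48-hour dose response in 96-well plates underlies each endpoint, interpolated linearly between surrounding concentrations. GI50: concentration for 50% inhibition of growth.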 Active and inactive are the calls of the source. Cut-off read from the data, not from the text of the source: active = GI50 up to about 1.1 µM and inactive = higher.

Assays:
Test in all cases: growth of human tumour cells (NCI), 48 h
[1] = tested on: OVCAR-5
[2] = tested on: ACHN
[3] = tested on: OVCAR-8
[4] = tested on: HCT-116
[5] = tested on: HOP-62
[6] = tested on: UACC-257
[7] = tested on: EKVX
[8] = tested on: 786-0
[9] = tested on: RPMI-8226
[10] = tested on: SK-MEL-5
[11] = tested on: SNB-75
[12] = tested on: HL-60
[13] = tested on: OVCAR-4
[14] = tested on: HOP-92
[15] = tested on: Malme-3M
[16] = tested on: MOLT-4
[17] = tested on: NCI/ADR-RES
[18] = tested on: NCI-H23
[19] = tested on: SR
[20] = tested on: SNB-19
[21] = tested on: MDA-MB-231
[22] = tested on: M14
[23] = tested on: HT-29
[24] = tested on: MCF7
[25] = tested on: UACC-62
[26] = tested on: LOX IMVI
[27] = tested on: CCRF-CEM
[28] = tested on: IGROV-1
[29] = tested on: SK-OV-3
[30] = tested on: NCI-H460
[31] = tested on: A549
[32] = tested on: HCC 2998
[33] = tested on: Hs-578T
[34] = tested on: BT-549
[35] = tested on: T47D
[36] = tested on: KM12
[37] = tested on: MDA-N
[38] = tested on: SK-MEL-2
[39] = tested on: HCT-15
[40] = tested on: SF-539
[41] = tested on: SF-295
[42] = tested on: UO-31
[43] = tested on: A498
[44] = tested on: SN12C
[45] = tested on: CAKI-1
[46] = tested on: NCI-H522
[47] = tested on: COLO 205
[48] = tested on: DU-145
[49] = tested on: OVCAR-3
[50] = tested on: PC-3
[51] = tested on: TK-10
[52] = tested on: K562
[53] = tested on: RXF 393
[54] = tested on: U-251
[55] = tested on: NCI-H226
[56] = tested on: SF-268
[57] = tested on: SW-620
[58] = tested on: SK-MEL-28
[59] = tested on: MDA-MB-435

With `O=C(O)c1cccc(Nc2c(C(=O)O)cccc2[N+](=O)[O-])c1` the GI50 [1] was > 100 µM (inactive), the GI50 [2] was > 100 µM (inactive) and the GI50 [3] was > 100 µM (inactive). The GI50 [4] was > 100 µM (inactive), the GI50 [5] was > 100 µM (inactive) and the GI50 [6] was > 100 µM (inactive). The GI50 [7] was > 100 µM (inactive), the GI50 [8] was > 100 µM (inactive) and the GI50 [9] was > 100 µM (inactive). For the same compound, the GI50 [10] was > 100 µM (inactive), the GI50 [11] was > 100 µM (inactive) and the GI50 [12] was > 100 µM (inactive). The GI50 [13] was > 100 µM (inactive), the GI50 [14] was > 100 µM (inactive) and the GI50 [15] was 38.5 µM (inactive). The GI50 [16] was > 100 µM (inactive), the GI50 [17] was > 100 µM (inactive) and the GI50 [18] was > 100 µM (inactive). The GI50 [19] was > 100 µM (inactive), the GI50 [20] was > 100 µM (inactive) and the GI50 [21] was > 100 µM (inactive). The GI50 [22] was > 100 µM (inactive), the GI50 [23] was > 100 µM (inactive) and the GI50 [24] was > 100 µM (inactive). For the same compound, the GI50 [25] was > 100 µM (inactive), the GI50 [26] was > 100 µM (inactive) and the GI50 [27] was > 100 µM (inactive). The GI50 [28] was > 100 µM (inactive), the GI50 [29] was > 100 µM (inactive) and the GI50 [30] was > 100 µM (inactive). For the same compound, the GI50 [31] was > 100 µM (inactive), the GI50 [32] was > 100 µM (inactive) and the GI50 [33] was > 100 µM (inactive). For the same compound, the GI50 [34] was > 100 µM (inactive), the GI50 [35] was > 100 µM (inactive) and the GI50 [36] was 57.4 µM (inactive). For the same compound, the GI50 [37] was > 100 µM (inactive), the GI50 [38] was > 100 µM (inactive) and the GI50 [39] was > 100 µM. For the same compound, the GI50 [40] was > 100 µM (inactive), the GI50 [41] was > 100 µM (inactive) and the GI50 [42] was > 100 µM (inactive). For the same compound, the GI50 [43] was > 100 µM (inactive), the GI50 [44] was > 100 µM (inactive) and the GI50 [45] was > 100 µM (inactive). The GI50 [46] was > 100 µM (inactive), the GI50 [47] was > 100 µM (inactive) and the GI50 [48] was > 100 µM (inactive). The GI50 [49] was > 100 µM (inactive), the GI50 [50] was > 100 µM (inactive) and the GI50 [51] was > 100 µM (inactive). The GI50 [52] was > 100 µM (inactive).
`CCOP(=O)(O)CC1OC(CO)C(O)C1O` (centres undefined) was tested, and the GI50 [1] was > 100 µM (inactive), the GI50 [53] was > 100 µM (inactive) and the GI50 [2] was > 100 µM (inactive). The GI50 [3] was > 100 µM (inactive), the GI50 [4] was > 100 µM (inactive) and the GI50 [5] was > 100 µM (inactive). The GI50 [6] was > 100 µM (inactive), the GI50 [7] was > 100 µM (inactive) and the GI50 [8] was > 100 µM (inactive). For the same compound, the GI50 [10] was > 100 µM (inactive), the GI50 [11] was > 100 µM (inactive) and the GI50 [54] was > 100 µM (inactive). The GI50 [14] was > 100 µM (inactive), the GI50 [15] was > 100 µM (inactive) and the GI50 [16] was > 100 µM (inactive). For the same compound, the GI50 [17] was > 100 µM (inactive), the GI50 [18] was > 100 µM (inactive) and the GI50 [55] was > 100 µM (inactive). For the same compound, the GI50 [20] was > 100 µM (inactive), the GI50 [21] was > 100 µM (inactive) and the GI50 [22] was > 100 µM (inactive). The GI50 [23] was > 100 µM (inactive), the GI50 [25] was > 100 µM (inactive) and the GI50 [26] was > 100 µM (inactive). For the same compound, the GI50 [27] was > 100 µM (inactive), the GI50 [28] was > 100 µM (inactive) and the GI50 [29] was > 100 µM (inactive). For the same compound, the GI50 [30] was > 100 µM (inactive), the GI50 [31] was > 100 µM (inactive) and the GI50 [33] was > 100 µM (inactive). For the same compound, the GI50 [34] was > 100 µM (inactive), the GI50 [35] was > 100 µM (inactive) and the GI50 [37] was > 100 µM (inactive). The GI50 [38] was > 100 µM (inactive), the GI50 [39] was > 100 µM and the GI50 [40] was > 100 µM (inactive). For the same compound, the GI50 [41] was > 100 µM (inactive), the GI50 [42] was > 100 µM (inactive) and the GI50 [44] was > 100 µM (inactive). For the same compound, the GI50 [56] was > 100 µM (inactive), the GI50 [46] was > 100 µM (inactive) and the GI50 [57] was > 100 µM (inactive). The GI50 [47] was > 100 µM (inactive), the GI50 [48] was > 100 µM (inactive) and the GI50 [49] was > 100 µM (inactive). For the same compound, the GI50 [50] was > 100 µM (inactive), the GI50 [58] was > 100 µM (inactive) and the GI50 [51] was > 100 µM (inactive). For the same compound, the GI50 [52] was > 100 µM (inactive).
In the case of `NC(=O)c1cc2ccccc2c(/N=N/c2ccccc2)c1O`, the GI50 [1] is reported as > 100 µM (inactive), the GI50 [53] is reported as > 100 µM (inactive) and the GI50 [3] is reported as 29.9 µM (inactive). The GI50 [4] was 14.1 µM (inactive), the GI50 [5] was 22.6 µM (inactive) and the GI50 [6] was > 100 µM (inactive). The GI50 [7] was 39.4 µM (inactive), the GI50 [8] was 9.31 µM (inactive) and the GI50 [9] was 59.6 µM (inactive). The GI50 [10] was > 100 µM (inactive), the GI50 [11] was > 100 µM (inactive) and the GI50 [54] was 9.59 µM (inactive). For the same compound, the GI50 [13] was 19.4 µM (inactive), the GI50 [14] was 12.5 µM (inactive) and the GI50 [15] was > 100 µM (inactive). The GI50 [16] was 76.7 µM (inactive), the GI50 [17] was 76.2 µM (inactive) and the GI50 [18] was > 100 µM (inactive). The GI50 [19] was > 100 µM (inactive), the GI50 [55] was > 100 µM (inactive) and the GI50 [20] was > 100 µM (inactive). The GI50 [21] was 35.6 µM (inactive), the GI50 [22] was > 100 µM (inactive) and the GI50 [23] was 7.87 µM (inactive). The GI50 [59] was > 100 µM (inactive), the GI50 [25] was > 100 µM (inactive) and the GI50 [26] was > 100 µM (inactive). For the same compound, the GI50 [27] was > 100 µM (inactive), the GI50 [28] was > 100 µM (inactive) and the GI50 [29] was 76.6 µM (inactive). The GI50 [31] was > 100 µM (inactive), the GI50 [33] was 93.3 µM (inactive) and the GI50 [34] was > 100 µM (inactive). For the same compound, the GI50 [35] was > 100 µM (inactive), the GI50 [36] was 28.6 µM (inactive) and the GI50 [37] was > 100 µM (inactive). The GI50 [38] was > 100 µM (inactive), the GI50 [39] was > 100 µM and the GI50 [41] was > 100 µM (inactive). For the same compound, the GI50 [42] was > 100 µM (inactive), the GI50 [43] was > 100 µM (inactive) and the GI50 [44] was > 100 µM (inactive). The GI50 [45] was 23.5 µM (inactive), the GI50 [56] was 52.7 µM (inactive) and the GI50 [46] was 38.7 µM (inactive). For the same compound, the GI50 [57] was > 100 µM (inactive), the GI50 [47] was > 100 µM (inactive) and the GI50 [48] was > 100 µM (inactive). For the same compound, the GI50 [49] was 88.1 µM (inactive), the GI50 [50] was > 100 µM (inactive) and the GI50 [58] was > 100 µM (inactive). The GI50 [51] was > 100 µM (inactive) and the GI50 [52] was 71.9 µM (inactive).
